Consider eight molecules from patent US20060063932A1, “Aminoalkylpyrrolidine serotonin receptor ligands and compositions, their pharmaceutical uses, and methods for their synthesis” (priority 2000, published 2006).

Test [1] deals with T1, human 5-HT6 (h5-HT6) receptors (Homo sapiens, UniProt P50406).
T1 construct: purchased Receptor Biology, Inc. (Beltsville, Md.); host or cells: HEK-293 cells
Put plainly: Competition radioligand binding, h5-HT6 ([3H]LSD). To be noted: membranes of HEK-293 cells, 1 hr RT.

The target in test [2] is T2, human 5-HT7B (h5-HT7b) receptors (Homo sapiens, UniProt P34969).
T2 construct: expressed in transfected cells
T2 sequence (P34969 1-432 limits assumed): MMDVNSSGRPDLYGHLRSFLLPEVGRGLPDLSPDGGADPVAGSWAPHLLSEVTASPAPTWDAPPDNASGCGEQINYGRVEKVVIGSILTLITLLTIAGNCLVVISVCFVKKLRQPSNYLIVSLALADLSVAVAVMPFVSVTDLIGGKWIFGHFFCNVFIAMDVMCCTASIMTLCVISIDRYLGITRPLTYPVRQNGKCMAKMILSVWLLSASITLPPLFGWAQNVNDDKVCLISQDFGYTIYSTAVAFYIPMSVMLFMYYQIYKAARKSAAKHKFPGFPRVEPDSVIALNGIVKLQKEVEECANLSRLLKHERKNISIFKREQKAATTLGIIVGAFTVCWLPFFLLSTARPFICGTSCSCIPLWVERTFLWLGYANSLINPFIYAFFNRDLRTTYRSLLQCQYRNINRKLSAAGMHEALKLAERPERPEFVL
The test can be described thus: Competition radioligand binding, h5-HT7b ([3H]5-CT). Particulars: membranes of HEK 293 cells, 2 hr 37° C., read-out: Ki (nM) 5-HT7.

The target in test [3] is T3, human 5-HT1a receptors (Homo sapiens, UniProt P08908).
T3 construct: expressed in transfected cells; host or cells: CHO K1 cells
T3 sequence (P08908 1-422): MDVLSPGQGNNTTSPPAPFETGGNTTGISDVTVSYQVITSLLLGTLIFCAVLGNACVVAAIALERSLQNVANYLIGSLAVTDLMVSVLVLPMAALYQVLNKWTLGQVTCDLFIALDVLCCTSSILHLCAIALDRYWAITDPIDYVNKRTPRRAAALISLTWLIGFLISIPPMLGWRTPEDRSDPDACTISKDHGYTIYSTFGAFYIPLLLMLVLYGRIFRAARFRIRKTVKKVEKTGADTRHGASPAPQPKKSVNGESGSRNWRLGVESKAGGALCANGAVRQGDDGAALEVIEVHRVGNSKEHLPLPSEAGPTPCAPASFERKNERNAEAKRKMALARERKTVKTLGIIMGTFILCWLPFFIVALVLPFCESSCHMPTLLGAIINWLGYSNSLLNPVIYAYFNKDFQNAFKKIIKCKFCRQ
The test can be described thus: Competition radioligand binding, h5-HT1a ([3H]5-CT). To be noted: membranes of CHO K1 cells, 1 hr RT.

The target in test [4] is human D2S dopamine (hD2S-DA) receptors (Homo sapiens, UniProt P14416). Put plainly: Competition radioligand binding, hD2s DA ([3H]Spiperone).
human D2S dopamine (hD2S-DA) receptors, sequence (P14416 1-414 isoform P14416-2): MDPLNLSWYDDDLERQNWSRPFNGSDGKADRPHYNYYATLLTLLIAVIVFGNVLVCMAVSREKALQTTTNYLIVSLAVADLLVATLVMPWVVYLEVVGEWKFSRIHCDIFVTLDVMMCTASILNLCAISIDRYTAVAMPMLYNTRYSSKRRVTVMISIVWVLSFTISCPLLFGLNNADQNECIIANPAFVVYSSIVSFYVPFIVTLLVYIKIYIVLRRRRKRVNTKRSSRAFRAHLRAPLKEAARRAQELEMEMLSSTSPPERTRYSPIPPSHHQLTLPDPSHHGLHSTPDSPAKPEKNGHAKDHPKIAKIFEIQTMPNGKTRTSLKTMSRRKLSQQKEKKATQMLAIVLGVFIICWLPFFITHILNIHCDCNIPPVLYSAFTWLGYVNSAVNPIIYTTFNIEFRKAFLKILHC
Experimental: (§1) Cell pellets were homogenized in approximately 50 mL of homogenization buffer (buffer A) containing: 50 mM Tris (pH 7.4), 2 mM EGTA, 0.32 M sucrose, 10 μM PMSF, 1 μg/mL leupeptin, 5 μg/mL Pepstatin A, and 5 μg/mL aprotinin using an UltraTurax homogenizer (Tekmar Company, Cincinnati, Ohio) at 80% maximum setting three times for 10 sec. Cell pellets were centrifuged at 4° C. at 1,500×g for 10 min in a Beckman GS-6R centrifuge. Pellets were resuspended in buffer A, homogenized and centrifuged as described above. Pooled supernatants were transferred to centrifuge bottles and centrifuged at 4° C. at 20,000×g for 30 min in a Beckman J2-HS centrifuge. Cell pellets were resuspended in buffer A and were centrifuged at 4° C. at 20,000×g for 30 min. Cell pellets were resuspended in buffer A and stored at −70° C. in aliquots of 2.5 mg/mL total membrane protein. Total membrane protein was assessed utilizing a BCA kit (Pierce; Rockford, Ill.).
(§2) Filters were washed three times with ice-cold phosphate-buffered saline (PBS) wash buffer containing 50 mM NaPO4 (pH 7.4), 0.9% NaCl, 2 mM MgCl2 and 0.02% NaN3. The filters were then counted using liquid scintillation in a Packard Topcount scintillation counter.
(§3) Data Analysis: Radioligand binding experiments were analyzed with Prism™ (GraphPad, San Diego, Calif.), a computer graphics and statistics program. IC50 values and Hill slopes for compounds were generated by nonlinear regression using Prism™.
In test [5] the target is human 5-HT2a receptors (Homo sapiens, UniProt P28223). The test can be described thus: Competition radioligand binding, h5-HT2a ([3H]Ketanserin).
human 5-HT2a receptors, sequence (P28223 whole entry): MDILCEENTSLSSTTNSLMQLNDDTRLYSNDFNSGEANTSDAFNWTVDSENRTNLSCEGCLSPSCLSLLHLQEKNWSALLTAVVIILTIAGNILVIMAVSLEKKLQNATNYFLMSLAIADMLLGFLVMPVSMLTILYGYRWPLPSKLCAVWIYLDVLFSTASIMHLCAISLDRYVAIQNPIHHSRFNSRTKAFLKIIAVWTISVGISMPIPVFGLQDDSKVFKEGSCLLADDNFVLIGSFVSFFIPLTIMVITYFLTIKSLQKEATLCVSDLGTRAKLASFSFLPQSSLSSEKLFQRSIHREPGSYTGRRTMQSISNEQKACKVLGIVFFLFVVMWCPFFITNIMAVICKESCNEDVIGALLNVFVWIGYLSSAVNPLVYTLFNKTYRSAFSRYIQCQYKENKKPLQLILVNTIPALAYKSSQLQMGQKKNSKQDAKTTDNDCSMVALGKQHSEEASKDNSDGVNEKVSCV
Experimental: The 5-HT receptor binding properties of the compounds are identified by competitive radioligand binding assays wherein membranes prepared from transfected cells expressing the 5-HT receptor subtype of interest. “Binding constants” refers herein to Ki values measured by inhibition of the binding of radiolabelled ligands that are selective for the 5-HT receptor type being studied.
as §1, §2, §3

T1 sequence (P50406 whole entry): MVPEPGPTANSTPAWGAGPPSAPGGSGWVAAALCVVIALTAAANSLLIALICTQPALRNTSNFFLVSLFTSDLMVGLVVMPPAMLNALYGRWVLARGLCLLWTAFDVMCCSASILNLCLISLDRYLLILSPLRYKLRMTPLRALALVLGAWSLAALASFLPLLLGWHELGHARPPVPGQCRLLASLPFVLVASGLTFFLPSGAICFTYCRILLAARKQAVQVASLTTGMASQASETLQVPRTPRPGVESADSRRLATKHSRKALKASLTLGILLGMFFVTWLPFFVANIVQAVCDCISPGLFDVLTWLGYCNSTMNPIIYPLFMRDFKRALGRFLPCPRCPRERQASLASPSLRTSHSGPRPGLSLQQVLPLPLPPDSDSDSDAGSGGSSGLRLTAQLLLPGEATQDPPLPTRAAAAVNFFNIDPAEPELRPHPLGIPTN

In general, Ki refers to a measure of affinity in units of concentration, obtained from inhibition or displacement. Regarding `Cc1cccc(CN(CCC2CCCN2C)Cc2ccccc2)c1` (stereo not shown) [Example 30], the Ki was 53 nM in test [1]; 20 nM in test [2]; greater than 4000 nM in test [3]; 660 nM in test [4]; 60 nM in test [5].

Consider `COc1ccc(CN(CC[C@@H]2CCCN2C)Cc2cccc(O)c2)cc1` [Example 36], for which the Ki in test [1] was 1580 nM; in test [2], 49 nM; in test [3], greater than 4000 nM; in test [4], 2530 nM; in test [5] it was 200 nM.

On to `CC(C)c1ccc(CN(CC[C@@H]2CCCN2C)Cc2ccc(Cl)cc2)cc1` [Example 46], for which the Ki in test [1] is 350 nM; in test [2], 80 nM; in test [3], 3850 nM; in test [4] it was 1110 nM; in test [5], 42 nM.

As to `Cc1cc(CN(CC[C@@H]2CCCN2C)Cc2cccc(O)c2)cc(C)c1O` [Example 35], the Ki in test [1] was 2710 nM; in test [2], 17 nM; in test [3], greater than 4000 nM; in test [4] it was greater than 2500 nM; in test [5] it was 3470 nM.

Consider `COc1cccc(CN(CC[C@@H]2CCCN2C)Cc2ccc(Cl)cc2)c1` [Example 41], for which the Ki in test [1] is 83 nM; in test [2] it was 6.6 nM; in test [3], greater than 4000 nM; in test [4] it was 1480 nM; in test [5], 39 nM.

Consider `Cc1ccc(CN(CC[C@H]2CCCN2C)Cc2ccc(C)cc2)cc1` [Example 6], for which the Ki in test [1] is 53 nM; in test [2], 80 nM; in test [3], 1780 nM; in test [4], 200 nM; in test [5], 29 nM.

`CN1CCC[C@H]1CCN(Cc1ccc(O)cc1)Cc1ccc(Cl)cc1` [Example 49]: the Ki was 177 nM in test [1]; 1.9 nM in test [2]; greater than 4000 nM in test [3]; 1310 nM in test [4]; 148 nM in test [5].

Consider `CN1CCC[C@H]1CCN(Cc1ccc(O)cc1)Cc1cccc(O)c1` [Example 20], for which the Ki in test [1] is 880 nM; in test [2], 8.8 nM; in test [3], greater than 4000 nM; in test [4], greater than 2500 nM; in test [5], 540 nM.
